Measured values taken from patent publication US8455440B2, “Combination anticoagulant therapy with a compound that acts as a factor Xa inhibitor” (Millennium Pharmaceuticals, Inc., priority 2007, dated 2013).
Values joined by “and” are separate entries in the source; they are usually repeats but may differ in a detail not shown here. Equal entries are not always repeated. Marks after values point to notes of the source that are not given here.

How the values were obtained:
[1] = system: venous thromboembolism (VTE); experiment: Prospective randomized trial for prevention of venous thromboembolic events after total knee replacement; conditions: for VTE %: 10-14 days
Description: Safety endpoints included the incidence of major and clinically significant nonmajor bleeds through the day after venography. All efficacy and bleeding endpoints were adjudicated by a blinded, independent central adjudication committee.

[2] = system: Interleukin 6; experiment: Ex vivo cytokine release in human whole blood: interleukin 6; assay type: cell-based; conditions: for fold change of Interleukin 6 release: combination with Aspirin (0 nM = 1)
Description: An ex vivo assay system of human cytokine release was used to test whether inhibition of factor Xa should augment the effect of reduction of inflammation elicited by standard anti-inflammatory drugs, such as aspirin.
Following addition of Compound A (50 to 500 nM) to the blood samples, control and treated samples were activated by addition of collagen (Chronolog, 4 μg/mL) and gently rotated at 37° C. for 45 min. At the end of the activation period, blood samples were centrifuged at 13,000 rpm (15,000 g) for 5 min in an Eppendorf 5415G centrifuge. Plasma was removed, treated with protease inhibitor cocktail (Roche) and stored frozen at −80° C. Cytokines released from the blood cells were quantitated in a Multiplexed Biomarker Immunoassay for Luminex Instrumentation (Millipore USA). […] For example, in the plasma samples from six donors, the mean amount of interleukin 4 was 28.4 pg/mL in the untreated control and 26.8 to 29.4 pg/mL in the Compound A treated samples. […] Thus in this ex vivo system Compound A was capable of providing additional beneficial effect over a widely used anti-inflammatory agent.

[3] = Plasma concentrations of Compound A in telemeterized dogs; assay type: in vivo; conditions: combination with verapamil
Text: It is further contemplated that in patients being treated for atrial fibrillation, blood pressure lowering drugs such as beta blockers or calcium channel blockers and Compound A may be used concomitantly. Drugs like verapamil are known inhibitors of p-glycoprotein function. […] See Example 10.
The study was designed to evaluate the in vivo effect of Compound A upon co-administration with a selective L type calcium channel blocker, verapamil. Three beagle dogs were implanted with Data Science Telemetry transmitters (DSI model # TL11M2-D70-PCT) to measure conscious (un-anaesthetized) and unrestrained systolic and diastolic blood pressure following oral dosing with Compound A, verapamil or a combination of the two. The study design was a three way crossover with one week between doses to ensure complete elimination of residual agents from the dogs' circulatory system. Data was analyzed for a twelve hour period, starting with one hour pre-oral dosing of Compound A and ending with eleven hours post-dosing. Data acquisition and analysis was performed using LDS Life Science Suite Ponemah P3 plus V 4.20 software with results reported as 10 minute averages for each animal.

[4] = target: p-glycoprotein (Homo sapiens, UniProt P08183); experiment: In vitro evaluations of p-glycoprotein substrate; assay type: in vitro ADME
[5] = system: Rhesus Monkeys; experiment: Template bleed times in rhesus monkeys; assay type: in vivo, rhesus monkey; conditions: for Template Bleed Times / Template Bleed Times, Mean of all times / Template Bleed Times, Mean per animal / Template Bleed Times, Mean for time points 1-24 hr (post-Compound A dosing): in min (unit assumed); for Template Bleed Times, Mean of animals: mean of two animals; for Template Bleed Times, Mean of all times: all times (0-24 hr)
Text: Injectable heparins are often dose limited by their bleeding consequences which result in a narrow therapeutic window for treatment effects.

[6] = system: thrombin generation; experiment: Thrombin generation assay in platelet rich plasma (PRP); assay type: biochemical, human
Description: PRP and PPP were prepared by spinning the anticoagulated blood at ˜100×g or 1000×g for 20 minutes, respectively, at room temperature. Platelet counts in PRP were adjusted with homologous PPP to about 200,000 platelets/μL. For thrombin generation in 100 μL reaction mixture, 75 μL PRP was first mixed with CaCl2, convulxin, and Z-Gly-Gly-Arg-aminomethylcoumarin (Z-GGR-AMC, a thrombin fluorogenic substrate) for 3 minutes at 37° C., followed by adding tissue factor (Innovin, Dade Behring) to initiate the generation of thrombin. A typical reaction mixture contained 15 mM Ca^2+, 0.1 μg/mL convulxin, 100 μM Z-GGR-AMC, and 0.1 nM TF (tissue factor) (Innovin). Thrombin formation was monitored continuously at 37° C. by a fluorometric plate reader (Molecular Devices) measuring the relative fluorescence units (RFU). Inhibitors were pre-incubated with plasma for 20 minutes at room temperature before adding CaCl2 and convulxin.
Non-ASA represents result from donors free of aspirin. ASA represents results from donors taken aspirin for at least three days. % Inhibition was calculated by normalization of mean RFU (n=5) to Non-ASA at 0 nM Compound A.

[7] = system: ADP induced platelet aggregation; experiment: Ex vivo platelet aggregation induced by 10 μM ADP; assay type: in vivo; conditions: Rattus norvegicus, read-out: % inhibition of platelet aggregation
Description: In this experiment, the ability of Compound A to maintain vessel patency under arterial flow conditions in ferric chloride induced thrombosis in rat carotid artery is compared to that achieved by clopidogrel. Compound A was administered by intravenous infusions and clopidogrel was dosed orally for three days. Ex vivo platelet aggregation induced by 10 μM ADP and clotting times (prothrombin time, PT and activated partial thromboplastin times, aPTT) were measured over the experimental time course (90 min) in all animals.
This level of platelet inhibition is approximately equivalent to that attained by clopidogrel's effect on human platelets at the therapeutic dose in clinical use (75 mg per day). […] Time to occlusion was measured in animals that had vessel occlusion.

Chain of p-glycoprotein (P08183 whole entry): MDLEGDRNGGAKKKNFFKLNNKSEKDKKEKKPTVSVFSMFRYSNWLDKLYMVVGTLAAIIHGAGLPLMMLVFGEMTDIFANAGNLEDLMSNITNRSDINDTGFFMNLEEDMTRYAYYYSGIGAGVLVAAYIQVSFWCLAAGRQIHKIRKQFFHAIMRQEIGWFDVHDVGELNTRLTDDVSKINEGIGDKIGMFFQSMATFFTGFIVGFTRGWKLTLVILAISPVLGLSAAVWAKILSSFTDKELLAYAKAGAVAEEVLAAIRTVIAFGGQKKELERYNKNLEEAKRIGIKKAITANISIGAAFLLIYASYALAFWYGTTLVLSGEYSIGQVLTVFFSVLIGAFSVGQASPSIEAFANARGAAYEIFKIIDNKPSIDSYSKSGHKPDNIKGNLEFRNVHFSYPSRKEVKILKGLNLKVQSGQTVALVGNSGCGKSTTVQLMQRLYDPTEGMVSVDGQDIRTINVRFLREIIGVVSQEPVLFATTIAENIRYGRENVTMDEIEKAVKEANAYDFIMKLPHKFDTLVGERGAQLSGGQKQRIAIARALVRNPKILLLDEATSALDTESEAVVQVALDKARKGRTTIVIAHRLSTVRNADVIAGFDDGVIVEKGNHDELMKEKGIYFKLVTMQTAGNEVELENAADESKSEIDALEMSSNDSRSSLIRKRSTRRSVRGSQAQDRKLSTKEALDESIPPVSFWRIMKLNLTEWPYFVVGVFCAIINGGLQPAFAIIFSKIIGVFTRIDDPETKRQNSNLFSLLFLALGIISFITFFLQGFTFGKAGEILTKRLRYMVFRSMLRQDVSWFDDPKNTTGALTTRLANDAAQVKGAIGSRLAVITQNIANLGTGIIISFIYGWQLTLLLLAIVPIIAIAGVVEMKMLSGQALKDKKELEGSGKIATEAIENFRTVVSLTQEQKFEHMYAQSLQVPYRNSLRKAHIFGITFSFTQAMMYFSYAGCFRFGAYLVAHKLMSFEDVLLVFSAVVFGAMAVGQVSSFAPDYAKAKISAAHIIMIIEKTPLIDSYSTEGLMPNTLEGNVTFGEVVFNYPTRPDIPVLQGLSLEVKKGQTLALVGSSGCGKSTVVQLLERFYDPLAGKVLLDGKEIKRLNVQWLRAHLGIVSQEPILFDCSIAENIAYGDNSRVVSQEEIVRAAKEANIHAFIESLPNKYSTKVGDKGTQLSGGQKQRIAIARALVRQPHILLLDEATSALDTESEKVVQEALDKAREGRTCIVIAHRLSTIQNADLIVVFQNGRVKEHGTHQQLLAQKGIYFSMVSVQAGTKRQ

In the case of `COc1ccc(NC(=O)c2ccc(C(=N)N(C)C)cc2)c(C(=O)Nc2ccc(Cl)cn2)c1` [Compound A, [2-({4-[(dimethylamino)iminomethyl]phenyl}carbonylamino)-5-methoxyphenyl]-N-(5-chloro(2-pyridyl))carboxamide], the “Clinical significant nonmajor bleeds %” value ([1]; Compound A 15 mg bid) is reported as 0%, the “Major Bleeds %” value ([1]; Compound A 15 mg bid) is reported as 0% and the VTE % ([1]; Compound A 15 mg bid oral, n = 69) is reported as 20%. For the same compound, the “Clinical significant nonmajor bleeds %” value ([1]; Compound A 40 mg bid) was 2.4%, the “Major Bleeds %” value ([1]; Compound A 40 mg bid) was 0% and the VTE % ([1]; Compound A 40 mg bid oral, n = 65) was 15%. The “fold change of Interleukin 6 release” value ([2]; 50 nM Compound A) was 1.01, the “fold change of Interleukin 6 release” value ([2]; 200 nM Compound A) was 0.96 and the “fold change of Interleukin 6 release” value ([2]; 500 nM Compound A) was 0.87. For the same compound, the “reduction in the levels of released interleukin 6” value ([2]; Compound A added to blood samples from donors under aspirin therapy) was 25%, the “further reduction of interleukin 6” value ([2]; addition of Compound A to whole blood of aspirin treated donors prior to collagen activation) was 16% and the “plasma concentrations of Compound A, dual treatment versus single treatment” value [3] was “about two times higher”. For the same compound, the p-glycoprotein substrate [4] was “substrate of p-glycoprotein”, the “Template Bleed Times” value ([5]; 4.0 mg/kg, 1 hr, individual animals (Rhesus # 30675, 30973)) was 1.50 and 3.75 and the Template Bleed Times, Mean of animals ([5]; 4.0 mg/kg, 1 hr) was 2.63 min. For the same compound, the “Template Bleed Times” value ([5]; 4.0 mg/kg, 2 hr, individual animals (Rhesus # 30675, 30973)) was 1.50, the Template Bleed Times, Mean of animals ([5]; 4.0 mg/kg, 2 hr) was 1.5 min and the “Template Bleed Times” value ([5]; 4.0 mg/kg, 3 hr, individual animals (Rhesus # 30675, 30973)) was 1.50. The Template Bleed Times, Mean of animals ([5]; 4.0 mg/kg, 3 hr) was 1.5 min, the “Template Bleed Times” value ([5]; 4.0 mg/kg, 8 hr, individual animals (Rhesus # 30675, 30973)) was 2.00 and the Template Bleed Times, Mean of animals ([5]; 4.0 mg/kg, 8 hr) was 2 min. The “Template Bleed Times” value ([5]; 4.0 mg/kg, 24 hr, individual animals (Rhesus # 30675, 30973)) was 2.50, the Template Bleed Times, Mean of animals ([5]; 4.0 mg/kg, 24 hr) was 2.5 min and the “Template Bleed Times, Mean of all times” value ([5]; 4.0 mg/kg) was 1.98*. The “Template Bleed Times, Mean per animal” value ([5]; 4.0 mg/kg, mean over time points of each animal (Rhesus # 30675, 30973)) was 1.80 and 2.25, the “Template Bleed Times, Mean for time points 1-24 hr (post-Compound A dosing)” value ([5]; 4.0 mg/kg) was 2.03** and the “Template Bleed Times” value ([5]; 7.5 mg/kg, 1 hr, individual animals (Rhesus # 25285, 27678)) was 3.00 and 2.00. For the same compound, the Template Bleed Times, Mean of animals ([5]; 7.5 mg/kg, 1 hr) was 2.5 min, the “Template Bleed Times” value ([5]; 7.5 mg/kg, 2 hr, individual animals (Rhesus # 25285, 27678)) was 2.50 and 1.75 and the Template Bleed Times, Mean of animals ([5]; 7.5 mg/kg, 2 hr) was 2.13 min. For the same compound, the “Template Bleed Times” value ([5]; 7.5 mg/kg, 3 hr, individual animals (Rhesus # 25285, 27678)) was 2.50 and 2.00, the Template Bleed Times, Mean of animals ([5]; 7.5 mg/kg, 3 hr) was 2.25 min and the “Template Bleed Times” value ([5]; 7.5 mg/kg, 8 hr, individual animals (Rhesus # 25285, 27678)) was 4.00 and 2.50. The Template Bleed Times, Mean of animals ([5]; 7.5 mg/kg, 8 hr) was 3.25 min, the “Template Bleed Times” value ([5]; 7.5 mg/kg, 24 hr, individual animals (Rhesus # 25285, 27678)) was 2.50 and the Template Bleed Times, Mean of animals ([5]; 7.5 mg/kg, 24 hr) was 2.5 min. The “Template Bleed Times, Mean of all times” value ([5]; 7.5 mg/kg) was 2.50*, the “Template Bleed Times, Mean per animal” value ([5]; 7.5 mg/kg, mean over time points of each animal (Rhesus # 25285, 27678)) was 2.90 and 2.15 and the “Template Bleed Times, Mean for time points 1-24 hr (post-Compound A dosing)” value ([5]; 7.5 mg/kg) was 2.53**. The bleeding times ([5]; supra-therapeutic doses (7 to 35 times greater than the 0.21 mg/kg to 0.57 mg/kg human therapeutic doses)) was “did not extend of bleeding times”, the “bleeding time in monkeys” value ([5]; therapeutic levels, plasma concentrations between 5 to 25 ng/mL) was “did not cause extension of bleeding” and the “% Inhibition of thrombin generation” value ([6]; ASA donors, 7.8125 nM Compound A, normalized to Non-ASA at 0 nM) was 24.6%. For the same compound, the “% Inhibition of thrombin generation” value ([6]; ASA donors, 15.625 nM Compound A, normalized to Non-ASA at 0 nM) was 26.9%, the “% Inhibition of thrombin generation” value ([6]; ASA donors, 31.25 nM Compound A, normalized to Non-ASA at 0 nM) was 33.4% and the “% Inhibition of thrombin generation” value ([6]; ASA donors, 62.5 nM Compound A, normalized to Non-ASA at 0 nM) was 46.0%. The “% Inhibition of thrombin generation” value ([6]; ASA donors, 125 nM Compound A, normalized to Non-ASA at 0 nM) was 64.7%, the “% Inhibition of thrombin generation” value ([6]; ASA donors, 250 nM Compound A, normalized to Non-ASA at 0 nM) was 82.5% and the “% Inhibition of thrombin generation” value ([6]; ASA donors, 500 nM Compound A, normalized to Non-ASA at 0 nM) was 94.6%. For the same compound, the “% Inhibition of thrombin generation” value ([6]; Non-ASA donors, 7.8125 nM Compound A) was 3.2%, the “% Inhibition of thrombin generation” value ([6]; Non-ASA donors, 15.625 nM Compound A) was 5.1% and the “% Inhibition of thrombin generation” value ([6]; Non-ASA donors, 31.25 nM Compound A) was 12.2%. For the same compound, the “% Inhibition of thrombin generation” value ([6]; Non-ASA donors, 62.5 nM Compound A) was 25.2%, the “% Inhibition of thrombin generation” value ([6]; Non-ASA donors, 125 nM Compound A) was 55.1% and the “% Inhibition of thrombin generation” value ([6]; Non-ASA donors, 250 nM Compound A) was 81.1%. The “% Inhibition of thrombin generation” value ([6]; Non-ASA donors, 500 nM Compound A) was 96.0%, the inhibition at 0.03 µM [7] was -2% and the inhibition at 0.1 µM [7] was 4%. It also gave an inhibition at 0.3 µM [7] of 0.8%.
